Test results reported in patent US20200016159A1, “N3-CYCLICALLY SUBSTITUTED THIENOURACILS AND USE THEREOF” (Bayer Aktiengesellschaft, priority 2016, published 2020).

Assays:
[1] = biological target: T1, human adenosine A1 receptor (Homo sapiens, UniProt P30542); experiment: Adenosine receptor radioligand binding assay, A1 receptor ([3H]-DPCPX, CHO membranes); settings: membrane preparations of CHO cells, radioligand [3H]-DPCPX
T1 construct: expressed in transfected cells; host or cells: CHO
T1 sequence (P30542 1-326): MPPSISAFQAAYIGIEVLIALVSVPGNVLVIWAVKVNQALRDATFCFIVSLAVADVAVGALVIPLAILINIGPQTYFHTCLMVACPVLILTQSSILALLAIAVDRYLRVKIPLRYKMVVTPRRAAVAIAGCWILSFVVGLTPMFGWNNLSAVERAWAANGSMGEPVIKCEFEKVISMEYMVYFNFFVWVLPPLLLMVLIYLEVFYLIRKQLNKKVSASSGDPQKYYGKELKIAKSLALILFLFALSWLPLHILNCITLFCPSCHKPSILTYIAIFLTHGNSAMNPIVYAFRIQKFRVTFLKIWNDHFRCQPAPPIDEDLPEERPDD
Procedure: (§1) The binding properties of the test compounds on adenosine receptors were determined in binding studies with radioligands. For this purpose, membrane preparations of the human adenosine receptor subtypes were produced from cell lines having recombinant receptor expression (CHO cells for the A1 receptor, HEK293 cells for the A2a, A2b and A3 receptors). The following radioligands were used in the experiments: [^3H]-DPCPX for the A1 receptor, [^3H]-CGS 21680 for the A2a receptor, [^3H]-CPX for the A2b receptor and [^125I]-AB-MECA for the A3 receptor. The test substances were each tested in 8 different concentrations and 2 repeat tests per concentration. The displacement of the particular radioligand by the test compound was expressed as percentage inhibition of the specific binding of the controls.
(§2) The IC50 values (concentration which brings about half-maximum inhibition of the specific binding of the controls) and the Hill coefficients (nH) were determined by a non-linear regression analysis, using the competition curves obtained from the mean values of the repeat tests and conducting a curve fit according to the Hill equation:
(§3) (Y=specific binding; A=left-hand asymptote of the curve; D=right-hand asymptote of the curve; C=substance concentration; C50=IC50; nH=rise factor).
(§4) The inhibition constant (Ki) was calculated by the Cheng-Prusoff equation:
(§5) (L=concentration of the radioligand in the assay; KD=receptor affinity of the radioligand for the receptor, determined with a Scatchard plot).
(§6) [Literature: A1 receptor: Townsend-Nicholson, A. und Schofield, P. R., J. Biol. Chem. 269: 2373-2376 (1994); A2a receptor: Luthin, D. R. et al., Mol. Pharmacol. 47: 307-313 (1995); A2b receptor: Stehle, J. H. et al., Mol. Endocrinol. 6: 384-393 (1992) and Linden et al., Mol. Pharmacol. 56: 705-713 (1999); A3 receptor: Salvatore, C. A. et al., Proc. Natl. Acad. Sci. U.S.A. 90: 10365-10369 (1993) and Jacobson, K. A. et al., Neuropharmacology 36: 1157-1165 (1997)].
(§7) Table 2 below lists the K1 values thus determined from these binding assays for representative working examples (in some cases as means of a plurality of independent individual determinations and rounded to two significant figures; it may also be the case here that various independent preparations of the respective working example have been used): […]

[2] = tested on: IL-6 release by LL29 fibroblasts; experiment: NECA-induced IL-6 release by LL29 fibroblasts; format: cell-based; settings: Homo sapiens, Fibroblast; LL29 cells stimulated with NECA (10 μM), 24 hours, IL-6 ELISA of supernatant
Procedure: Stimulation of fibroblasts with adenosine or the adenosine analog 5′-N-ethylcarboxamidoadenosine (NECA) leads to release of the pro-inflammatory and pro-fibrotic cytokine IL-6 which can be prevented by inhibition of the A2b receptor.
Accordingly, confluent cells of the human fibroblast cell line LL29 were treated with the test substances and stimulated with NECA (10 μM). After an incubation time of 24 hours, the cell supernatant is removed and human IL-6 in the cell supernatant is determined by ELISA (Quantikine® IL6 ELISA, R&D Systems, Minneapolis, USA).
as §7, with “3” for “2”, “IC50” for “K1”, “obtained in this way for inhibition of IL-6 release” for “thus determined from these binding assays”

[3] = biological target: T2, human adenosine A2b receptor (Homo sapiens, UniProt P29275); experiment: Cellular in vitro reporter gene test for A2b receptor activity (antagonism of NECA); format: cell-based; parameters: expressed in transfected cells; host or cells: CHO-K1 (Chinese hamster ovary) with CRE-luciferase reporter; settings: recombinant CHO-K1 cells, CRE-luciferase reporter, co-incubation with EC50 concentration of NECA, 3 hours
T2 sequence (P29275 1-332): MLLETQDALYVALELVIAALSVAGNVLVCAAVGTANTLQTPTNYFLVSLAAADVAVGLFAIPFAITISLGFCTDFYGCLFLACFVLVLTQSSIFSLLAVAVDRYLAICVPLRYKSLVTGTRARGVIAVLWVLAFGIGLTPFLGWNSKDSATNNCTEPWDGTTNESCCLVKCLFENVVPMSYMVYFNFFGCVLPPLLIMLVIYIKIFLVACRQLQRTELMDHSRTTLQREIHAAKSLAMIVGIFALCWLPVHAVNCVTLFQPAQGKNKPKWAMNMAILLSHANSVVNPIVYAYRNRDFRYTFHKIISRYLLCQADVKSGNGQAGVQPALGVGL
Summary of the method: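 Antagonism measured as block of NECA-induced, cAMP/CRE-dependent luciferase expression in recombinant A2b CHO-K1 cells. NECA used at the EC50 set in a pre-experiment on each test day; luminescence detected after 3 h. Reported as IC50, partly averaged and rounded to two significant figures.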

[4] = biological target: T3, human adenosine A3 receptor (Homo sapiens, UniProt P0DMS8); experiment: Adenosine receptor radioligand binding assay, A3 receptor ([125I]-AB-MECA, HEK293 membranes); settings: membrane preparations of HEK293 cells, radioligand [125I]-AB-MECA
T3 construct: expressed in transfected cells; host or cells: HEK293
T3 sequence (P0DMS8 1-318): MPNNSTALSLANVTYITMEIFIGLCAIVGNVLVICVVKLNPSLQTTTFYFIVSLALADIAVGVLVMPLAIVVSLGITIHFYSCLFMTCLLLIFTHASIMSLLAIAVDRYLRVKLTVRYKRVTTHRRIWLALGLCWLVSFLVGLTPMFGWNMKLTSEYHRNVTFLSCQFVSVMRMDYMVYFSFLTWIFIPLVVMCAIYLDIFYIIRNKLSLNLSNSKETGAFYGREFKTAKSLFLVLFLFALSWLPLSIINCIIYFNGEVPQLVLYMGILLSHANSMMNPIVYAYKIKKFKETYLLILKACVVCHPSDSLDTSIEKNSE
Procedure: as §1, §2, §3, §4, §5, §6, §7

[5] = biological target: T4, human adenosine A2a receptor (Homo sapiens, UniProt P29274); experiment: Adenosine receptor radioligand binding assay, A2a receptor ([3H]-CGS 21680, HEK293 membranes); settings: membrane preparations of HEK293 cells, radioligand [3H]-CGS 21680
T4 construct: expressed in transfected cells; host or cells: HEK293
T4 sequence (P29274 whole entry): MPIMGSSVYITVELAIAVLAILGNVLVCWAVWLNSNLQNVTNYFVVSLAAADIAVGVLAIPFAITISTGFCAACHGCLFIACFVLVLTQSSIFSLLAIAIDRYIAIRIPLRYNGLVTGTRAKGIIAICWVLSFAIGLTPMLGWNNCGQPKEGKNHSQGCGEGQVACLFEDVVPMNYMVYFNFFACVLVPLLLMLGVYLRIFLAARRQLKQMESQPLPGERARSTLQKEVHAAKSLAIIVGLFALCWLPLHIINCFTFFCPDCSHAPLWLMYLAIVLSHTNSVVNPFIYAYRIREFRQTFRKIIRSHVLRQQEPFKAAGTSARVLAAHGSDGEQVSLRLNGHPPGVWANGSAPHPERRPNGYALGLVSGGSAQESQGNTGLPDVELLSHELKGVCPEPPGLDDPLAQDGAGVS
Procedure: as §1, §2, §3, §4, §5, §6, §7

[6] = biological target: T2, human adenosine A2b receptor; experiment: Adenosine receptor radioligand binding assay, A2b receptor ([3H]-CPX, HEK293 membranes); parameters: expressed in transfected cells; settings: membrane preparations of HEK293 cells, radioligand [3H]-CPX
Procedure: as §1, §2, §3, §4, §5, §6, §7

[7] = tested on: bladder tumours and breast tumours; settings: animal models of bladder tumours and breast tumours; cited from earlier work
colon cancer cell lines = settings: inhibition of the A2b receptor-mediated adenosine signalling pathway; cited from earlier work
melanoma animal models = settings: cited from earlier work
[8] = tested on: prostate cancer cell lines; settings: cited from earlier work

Ki [1]	IC50 [3]	Ki [4]	Ki [5]	Ki [6]	Structure (SMILES)	IC50 [2]	further results
3400 nM	3.8 nM	3700 nM	480 nM	3.7 nM	COCCn1c(=O)n(C2CC2C)c(=O)c2c(C)c(CN3CCNC3=O)sc21 (single isomer, unassigned) [Example 96, 1-(2-Methoxyethyl)-5-methyl-3-(2-methylcyclopropyl)-6-[(2-oxoimidazolidin-1-yl)methyl]thieno[2,3-d]pyrimidine-2,4(1H,3H)-dione]	4.9 nM	
					CCCn1c(=O)n(C2CC2)c(=O)c2[nH]c(-c3ccc(N(CC)C(=O)c4cccnc4)nc3)nc21 [ATL801]		interferon γ level [7]: significant increase; metastasis [7]: distinct reduction in metastasis; number of tumour antigen-presenting dendritic cells [7]: increase; tumour growth [7]: slowing of tumour growth
8000 nM	14 nM	> 10000 nM	3000 nM	3.6 nM	Cc1c(Cn2nc[nH]c2=O)sc2c1c(=O)n(C1CC1)c(=O)n2CCC(F)(F)F [Example 15, 3-Cyclopropyl-5-methyl-6-[(5-oxo-4,5-dihydro-1H-1,2,4-triazol-1-yl)methyl]-1-(3,3,3-trifluoropropyl)thieno[2,3-d]pyrimidine-2,4(1H,3H)-dione]		
2600 nM	4.4 nM	> 50000 nM	950 nM	2.6 nM	Cc1c(Cn2nc[nH]c2=O)sc2c1c(=O)n(C1CC1)c(=O)n2CCOC(F)(F)F [Example 36, 3-Cyclopropyl-5-methyl-6-[(5-oxo-4,5-dihydro-1H-1,2,4-triazol-1-yl)methyl]-1-[2-(trifluoromethoxy)ethyl]thieno[2,3-d]pyrimidine-2,4(1H,3H)-dione]	6.1 nM	melting point: 199 °C
> 10000 nM	15 nM	> 10000 nM	4800 nM	5.7 nM	COCCn1c(=O)n(C2(C)CC2)c(=O)c2c(C)c(CN3CCNC3=O)sc21 [Example 70, 1-(2-Methoxyethyl)-5-methyl-3-(1-methylcyclopropyl)-6-[(2-oxoimidazolidin-1-yl)methyl]thieno[2,3-d]pyrimidine-2,4(1H,3H)-dione]		
	8.5 nM				Cc1c(Cn2nc[nH]c2=O)sc2c1c(=O)n(C1(C)CC1)c(=O)n2CCOC(F)(F)F [Example 76, 5-Methyl-3-(1-methylcyclopropyl)-6-[(5-oxo-4,5-dihydro-1H-1,2,4-triazol-1-yl)methyl]-1-[2-(trifluormethoxy)ethyl]thieno[2,3-d]pyrimidine-2,4(1H,3H)-dione]	11 nM	
3400 nM	3.8 nM	3700 nM	480 nM	3.7 nM	COCCn1c(=O)n([C@H]2C[C@@H]2C)c(=O)c2c(C)c(CN3CCNC3=O)sc21 [Example 315, 1-(2-Methoxyethyl)-5-methyl-3-[(1S,2S)-2-methylcyclopropyl]-6-[(2-oxoimidazolidin-1-yl)methyl]thieno[2,3-d]pyrimidine-2,4(1H,3H)-dione]	4.9 nM	
					CCCn1c(=O)c2[nH]c(-c3ccc(OCC(=O)Nc4ccc(C#N)cc4)cc3)nc2n(CCC)c1=O [MRS1754]		growth of colon cancer cell lines (colon cancer cell lines): reduced growth
					CCCn1c(=O)[nH]c2nc(-c3ccc(S(=O)(=O)N4CCN(c5ccc(Cl)cc5)CC4)cc3)[nH]c2c1=O [PSB603]		tumour growth and metastasis (melanoma animal models): reduction in tumour growth and metastasis; growth of several prostate cancer cell lines [8]: reduces the growth
